The values below come from patent publication US10182500B2, “Curable composition for photoimprint, cured product, and method of producing film having pattern, optical component, circuit board, or electronic component using the composition” (CANON KABUSHIKI KAISHA, priority 2014, dated 2019).

Read-outs that look alike come from different tables or passages of the source.

For series [1] the following is noted: 1 h.
Method: (§1) An arbitrary amount of a photopolymerization initiator is weighed in a sample bottle at 23° C., and a condensable gas cooled to 5° C. to a liquid state is gradually added to the bottle until the photopolymerization initiator is completely dissolved. The sample bottle is capped and is left to stand in a refrigerator at 5° C. for 1 hour. The sample bottle is then subjected to visual observation whether the photopolymerization initiator is completely dissolved. The weight of the weighed photopolymerization initiator is divided by the sum of the weight of the photopolymerization initiator and the weight of the condensable gas in a liquid state, and the resulting quotient is expressed in percentage as the saturated solubility.
(§2) The sample bottle was capped and was left to stand in a refrigerator at 5° C. for 1 hour. The sample bottle was then visually observed.
The conditions of series [2]: composition mainly composed of an acrylic monomer; cited from earlier work.
Series [3] in a line: Saturated solubility in liquid condensable gas (PFP), visual observation. As to conditions: for Saturated solubility: to PFP, liquid state at 5° C. and 1 atm.
Method: as §1, §2

Take `Cc1cc(C)c(C(=O)P(=O)(c2ccccc2)c2ccccc2)c(C)c1` [Formula (1), 2,4,6-trimethylbenzoyldiphenylphosphine oxide]: in series [1], the Saturated solubility is recorded as under 1.0 % by weight and the saturated solubility entry is on record as “less than 1 % by weight”.

For the molecule `FC(F)CC(F)(F)F` [1,1,1,3,3-pentafluoropropane], in series [2], the “PFP dissolved in curable composition for photoimprint” value is given as “about 40 % by volume”.

For the molecule `COC(OC)(C(=O)c1ccccc1)c1ccccc1` [Formula (6), benzyl dimethyl ketal], the saturated solubility entry in series [3] (at 5° C. in PFP being a liquid state at 5° C. and 1 atm) is recorded as “higher than 2.67 % by weight”.

In turn, `CCN(CC)c1ccc(C(=O)c2ccc(N(CC)CC)cc2)cc1` [Formula (4), 4,4′-bis(diethylamino)benzophenone] displayed a Saturated solubility in series [3] of under 1.0 % by weight. The same measure, in the same setting: the value for `CC(C)c1ccc2sc3ccccc3c(=O)c2c1` [Formula (3), 2-isopropylthioxanthone] was under 1.0 % by weight.
